Assay: Dissolution capacity of UV light protection filters
Type: physicochemical
Conditions: 22° C., percentage by weight; for dissolution capacity for BEMT (maximal soluble amount): Bis-Ethylhexyloxyphenol Methoxyphenyl Triazine in the compound as solvent; for dissolution capacity for BMDM (maximal soluble amount): Butyl Methoxydibenzoylmethane in the compound as solvent; for dissolution capacity for EHT (maximal soluble amount): Ethylhexyl Triazone in the compound as solvent
Excerpt: To test the dissolution capacity of UV light protection filters, three representative UVA or UVB light protection filters were selected representatively. These are: • Butyl Methoxydibenzoylmethane (BMDM) • Ethylhexyl Triazone (EHT) • Bis-Ethylhexyloxyphenol Methoxyphenyl Triazine (BEMT).
To determine the dissolution capacity for these three UV light protection filters, a certain amount (50 g) of one of the compounds according to the invention was initially charged in each case and temperature-controlled at 22° C. A percentage by weight of a UV light protection filter was added and stirred until this amount had fully and homogeneously dissolved. This procedure was repeated until the maximal soluble amount of the UV light protection filter had been exceeded. […] If the maximum concentration had been roughly determined in this manner, a fine determination of the concentration range was repeated around this maximum concentration using smaller weighed amounts of the UV light protection filter.

| SMILES | dissolution capacity for BEMT (maximal soluble amount) [%] | dissolution capacity for BMDM (maximal soluble amount) [%] | dissolution capacity for EHT (maximal soluble amount) [%] |
| --- | --- | --- | --- |
| CCCCCCCC(=O)OCCOc1ccccc1 [2-Phenoxyethyl octanoate, reference compound] | 11 | 18 | 6 |
| CC(C)CCOC(=O)c1ccc(C(=O)OCCC(C)C)cc1 [Di(iso)pentyl terephthalate] | 13 | 22 | 14 |
| CCCCOC(=O)c1ccc(C(=O)OCCCC)cc1 [Di(n-)butane terephthalate] | 23 | 23 | 18 |

From patent US20220323325A1, “COMPOSITIONS COMPRISING DISSUBSTITUTE TEREPHTHALATES AND ALSO LIGHT PROECTION FILTER SUBSTANCES, DEODORANT AND/OR ANTIPERSPIRANT ACTIVE INGREDIENTS” (Evonik Operations GmbH, priority 2019, published 2022)
